Laboratory results taken from patent US20050209336A1, “EP2 receptor agonists” (priority 2003, published 2005).
Where two headings read alike, the source gives them in different places.

Legend:
human EP1 receptor = molecular target: T1, human EP1 receptor (Homo sapiens, UniProt P34995); assay: Radioligand ([3H]PGE2) competition displacement binding, human EP1 receptor membranes; conditions: [3H]PGE2 displacement, read-out: pKi EP1 (converted)
T1 construct: expressed in transfected cells
T1 sequence (P34995 1-402): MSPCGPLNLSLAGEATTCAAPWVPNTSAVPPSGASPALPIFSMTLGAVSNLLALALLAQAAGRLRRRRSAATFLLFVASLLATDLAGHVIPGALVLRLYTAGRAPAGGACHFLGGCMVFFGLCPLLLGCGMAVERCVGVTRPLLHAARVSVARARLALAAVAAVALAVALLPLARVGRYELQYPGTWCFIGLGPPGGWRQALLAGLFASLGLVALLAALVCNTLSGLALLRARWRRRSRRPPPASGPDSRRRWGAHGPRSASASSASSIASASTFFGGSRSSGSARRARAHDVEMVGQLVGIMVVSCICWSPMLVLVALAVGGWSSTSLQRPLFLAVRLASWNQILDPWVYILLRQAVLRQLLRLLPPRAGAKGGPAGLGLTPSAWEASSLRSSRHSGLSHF
Method: Membranes were prepared from cells stably transfected with human EP receptor cDNA. In brief, cells were cultured to confluency, scraped from culture flasks, and centrifuged (800 g, 8 minutes, 4° C.). Cells were twice washed in ice cold homogenisation buffer containing 10 mMTris-HCl, 1 mM EDTA.2Na, 250 mM sucrose, 1 mM PMSF, 0.3 mM indomethacin, pH 7.4, homogenised and re-centrifuged as before. The supernatant was stored on ice and pellets re-homogenised and re-spun. Supernatants were pooled and centrifuged at 40000 g, 10 minutes, 4° C. Resultant membrane pellets were stored at −80° C. until use.
For assay, membranes expressing human EP4, EP3, EP2 or EP1 receptors were incubated in Millipore (MHVBN45) plates containing assay buffer, radiolabelled [^3H]PGE2 and 0.1 to 10 000 nM concentrations of compounds. Incubations were performed at suitable temperatures and for suitable times to allow equilibrium to be reached. Non-specific binding was determined in the presence of 10 uM PGE2. Bound and free radiolabel was separated by vacuum manifold filtration using appropriate wash buffers, and bound radiolabel was determined by scintillation counting. Constituents of each of the buffers are included in table 4 below.
The affinity or pKi of each compound for each receptor was calculated from the concentration causing 50% radioligand displacement (IC50) using the Cheng-Prusoff equation: [formula] […]

[1] = tested on: interferon gamma release by lymphocytes; assay: Lymphocyte assay: interferon gamma release; type: cell-based, human; conditions: two donors (FIG. 11)
Excerpt: Lymphocytes are mononuclear leukocytes, which participate in specific immune responses to foreign antigens and in the manifestation of auto-immune diseases. T lymphocytes produce IL-2, a key factor for lymphocyte activation and proliferation, in response to antigen stimulation via the CD3-T cell receptor complex and the pathway involved in this response is the NF-AT. […] A lymphocyte assay was designed to model this response and to determine the effect of test compound on IL-2 production by anti-CD3-stimulated T cells isolated from peripheral blood. This assay uses a sub-optimal dose of an anti-CD3 monoclonal antibody (OKT3, 25 ng/ml) immobilised to a 96-well plate to stimulate a T cell response. The level of IL-2 released into the cell culture supernatants was quantified using a standard sandwich ELISA. Similarly, other cytokines such as TNFα and IFN-γ can also be measured in the same assay. […]
Lymphocytes were then seeded to a 96-well plate pre-coated with anti-CD3 monoclonal antibody (OKT3) at 25 ng/ml and immediately, the test compounds (Peak 1, mixture 1 acid; Peak 1, mixture 2 acid; AH-13205 racemate; PGE2) in appropriate dilutions were added to corresponding wells according to the experimental design. […] The levels of IFN-γ was assessed by using the ProteoPlex 16 well human cytokine array assay kit according to the manufacturer's instruction.

[2] = tested on: TNFα production by alveolar macrophages; assay: Alveolar macrophage assay: LPS-induced TNFα release; type: cell-based, human; conditions: Homo sapiens, Macrophage, inhibition of TNFα production, LPS 1 μg/ml, 24 h, mean of three donors
Method: Human lung parenchyma was cut into small pieces and perfused with ice-cold phosphate buffered saline (PBS) to remove contaminating blood and mucus. The tissues were then chopped with scissors in the presence of Minimum Essential Medium supplemented with penicillin, streptomycin, L-glutamine and DNase (0.25 mg/ml). The chopped tissues were shaken gently to dislodge the macrophages. A crude cell suspension was then obtained by the removal of the tissues with a sterile filter (150 μm pore size). The resulting cell suspension was spun and the cell pellet collected. Contaminating red blood cells were depleted with a red blood cell lysis buffer and the remaining cells washed twice with PBS by centrifugation. Alveolar macrophages were then purified from this cell preparation by using a positive selection method for CD14-molecule bearing cells using a VarioMac™ Separator and respective positive selection reagents and columns supplied by Miltenyi Biotec Ltd according to the manufacturer's instruction.
For the assay, alveolar macrophages were resuspended in complete culture medium consisting of RPMI1640 supplemented with 10% foetal calf serum, L-glutamine and antibiotics. The cells were then plated into 24 well plates (4×10^5 cell/well) and incubated overnight at 37° C. with 5% CO2 in air to allow cell adherence. The exhausted medium was then removed from the plates and the plates rinsed briefly with fresh medium before the addition of test compound solutions. The test compounds were incubated with the cells for 30 minutes before the addition of E. Coli LPS (1 μg/ml). The assay plates were incubated in a humidified incubator at 37° C. with 5% CO2 in air for 24 hours. The release of TNFα by the cells into the culture supernatants was quantified using an ELISA kit (DuoSet® human TNFα ELSIA Development System) supplied by R+D Systems (Europe) according to the manufacturer's instruction. Indomethacin at 3 μM was included in all treatments to inhibit the possible release of endogenous prostaglandin E2.

Ki (human EP1 receptor) [µM] | EC50 ([2]; read-out: Mean EC50) [µM] | EC50 ([2]; log scale, read-out: Mean Log (EC50) (converted)) [µM] | Compound | interferon gamma release [1]
10 | – | – | CCCCCC(O)c1ccc(C2CCC(=O)C2CCCCCCC(=O)O)cc1 (racemic) [AH13205, (±)-trans-2-[4-(1-hydroxyhexyl)phenyl]-5-oxo-cyclopentaneheptanoic acid, reference compound] | –
– | 7.02 | 7.01 | CCCCC[C@H](O)c1ccc([C@H]2CCC(=O)[C@@H]2CCCCCCC(=O)O)cc1 (single isomer, unassigned) [Peak 1, Mixture 1 acid] | concentration-dependently inhibit interferon gamma release
